# Laboratory results from the kinase profiling compilation of Christmann-Franck et al. (2016).
# What was measured:
# Assay in all cases: radiometric filter-binding kinase assay, Kinase HotSpot
# Details in all cases: compound 0.5 µM; ATP 10 µM
# [1] = molecular target: ACVRL1 (human) (UniProt P37023)
# [2] = molecular target: AURKC (human) (UniProt Q9UQB9)
# [3] = molecular target: CAMKK2 (human) (UniProt Q96RR4)
# [4] = molecular target: CDK6 CCND3 (human) (UniProt P30281+Q00534)
# [5] = molecular target: CDK9 CCNK (human) (UniProt O75909+P50750)
# [6] = molecular target: CHUK (human) (UniProt O15111)
# CHUK (human), sequence (O15111 whole entry, looked up): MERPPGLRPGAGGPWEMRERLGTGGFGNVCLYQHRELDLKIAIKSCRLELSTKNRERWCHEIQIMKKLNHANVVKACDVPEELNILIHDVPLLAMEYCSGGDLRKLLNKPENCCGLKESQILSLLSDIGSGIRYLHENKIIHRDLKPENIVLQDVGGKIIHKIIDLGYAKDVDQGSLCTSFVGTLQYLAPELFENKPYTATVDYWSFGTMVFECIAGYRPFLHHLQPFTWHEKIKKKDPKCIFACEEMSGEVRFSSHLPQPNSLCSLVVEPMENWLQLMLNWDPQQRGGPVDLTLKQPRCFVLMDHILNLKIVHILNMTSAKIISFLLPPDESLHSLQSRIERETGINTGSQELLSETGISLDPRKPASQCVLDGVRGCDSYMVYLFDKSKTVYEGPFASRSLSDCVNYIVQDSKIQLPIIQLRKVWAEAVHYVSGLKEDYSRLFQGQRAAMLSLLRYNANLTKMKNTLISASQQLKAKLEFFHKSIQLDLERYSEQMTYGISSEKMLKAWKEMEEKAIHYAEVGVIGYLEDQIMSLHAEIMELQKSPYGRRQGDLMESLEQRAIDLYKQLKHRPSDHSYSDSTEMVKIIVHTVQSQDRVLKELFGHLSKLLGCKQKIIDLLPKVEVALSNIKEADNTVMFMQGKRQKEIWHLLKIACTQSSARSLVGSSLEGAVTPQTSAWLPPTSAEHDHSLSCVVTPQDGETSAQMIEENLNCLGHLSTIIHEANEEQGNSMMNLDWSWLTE
# [7] = molecular target: CLK3 (human) (UniProt P49761)
# [8] = molecular target: CSK (human) (UniProt P41240)
# CSK (human), sequence (P41240 whole entry, looked up): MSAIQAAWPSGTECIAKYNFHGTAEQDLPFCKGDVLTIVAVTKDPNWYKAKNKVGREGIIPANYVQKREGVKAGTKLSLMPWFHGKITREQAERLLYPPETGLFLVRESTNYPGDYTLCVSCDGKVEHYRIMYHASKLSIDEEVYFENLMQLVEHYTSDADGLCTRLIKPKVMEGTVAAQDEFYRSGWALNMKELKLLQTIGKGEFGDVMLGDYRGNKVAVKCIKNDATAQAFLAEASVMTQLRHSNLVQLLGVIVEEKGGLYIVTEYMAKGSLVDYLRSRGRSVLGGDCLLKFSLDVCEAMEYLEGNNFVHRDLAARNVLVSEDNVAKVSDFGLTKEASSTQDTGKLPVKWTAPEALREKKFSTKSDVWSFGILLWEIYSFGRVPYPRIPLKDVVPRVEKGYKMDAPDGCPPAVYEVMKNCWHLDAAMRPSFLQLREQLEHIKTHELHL
# [9] = molecular target: CSNK1G3 (human) (UniProt Q9Y6M4)
# [10] = molecular target: CSNK2A2 (human) (UniProt P19784)
# CSNK2A2 (human), sequence (P19784 whole entry, looked up): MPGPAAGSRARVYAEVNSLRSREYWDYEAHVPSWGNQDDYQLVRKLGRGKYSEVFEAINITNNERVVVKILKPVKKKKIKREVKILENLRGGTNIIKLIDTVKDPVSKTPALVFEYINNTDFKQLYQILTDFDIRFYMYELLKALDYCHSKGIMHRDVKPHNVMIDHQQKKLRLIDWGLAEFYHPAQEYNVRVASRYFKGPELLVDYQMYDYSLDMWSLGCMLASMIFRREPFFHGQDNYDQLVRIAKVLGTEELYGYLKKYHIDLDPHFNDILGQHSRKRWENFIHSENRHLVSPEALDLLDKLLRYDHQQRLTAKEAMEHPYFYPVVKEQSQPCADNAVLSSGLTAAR
# [11] = molecular target: DCLK2 (human) (UniProt Q8N568)
# [12] = molecular target: DYRK1A (human) (UniProt Q13627)
# [13] = molecular target: DYRK1B (human) (UniProt Q9Y463)
# [14] = molecular target: DYRK4 (human) (UniProt Q9NR20)
# [15] = molecular target: EPHA1 (human) (UniProt P21709)
# [16] = molecular target: FLT1 (human) (UniProt P17948)
# [17] = molecular target: GSK3A (human) (UniProt P49840)
# GSK3A (human), sequence (P49840 whole entry, looked up): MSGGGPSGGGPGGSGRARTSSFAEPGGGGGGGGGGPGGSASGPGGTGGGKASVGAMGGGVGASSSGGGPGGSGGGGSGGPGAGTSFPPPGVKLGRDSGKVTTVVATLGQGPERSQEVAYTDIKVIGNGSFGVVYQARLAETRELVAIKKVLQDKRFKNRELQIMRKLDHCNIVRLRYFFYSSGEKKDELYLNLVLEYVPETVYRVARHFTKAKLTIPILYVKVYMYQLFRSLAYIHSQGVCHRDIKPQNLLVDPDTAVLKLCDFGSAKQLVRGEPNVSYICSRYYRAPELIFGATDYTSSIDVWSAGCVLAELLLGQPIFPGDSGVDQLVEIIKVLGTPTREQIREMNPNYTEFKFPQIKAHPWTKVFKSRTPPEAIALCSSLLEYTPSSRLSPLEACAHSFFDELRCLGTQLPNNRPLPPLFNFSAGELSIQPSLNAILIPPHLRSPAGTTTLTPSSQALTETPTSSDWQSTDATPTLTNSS
# [18] = molecular target: HIPK4 (human) (UniProt Q8NE63)
# [19] = molecular target: JAK1 JH1 catalytic (human) (UniProt P23458)
# [20] = molecular target: KDR (human) (UniProt P35968)
# [21] = molecular target: KIT (human) (UniProt P10721)
# [22] = molecular target: MAP2K2 (human) (UniProt P36507)
# [23] = molecular target: MAPK1 (human) (UniProt P28482)
# [24] = molecular target: MAPKAPK2 (human) (UniProt P49137)
# MAPKAPK2 (human), sequence (P49137 whole entry, looked up): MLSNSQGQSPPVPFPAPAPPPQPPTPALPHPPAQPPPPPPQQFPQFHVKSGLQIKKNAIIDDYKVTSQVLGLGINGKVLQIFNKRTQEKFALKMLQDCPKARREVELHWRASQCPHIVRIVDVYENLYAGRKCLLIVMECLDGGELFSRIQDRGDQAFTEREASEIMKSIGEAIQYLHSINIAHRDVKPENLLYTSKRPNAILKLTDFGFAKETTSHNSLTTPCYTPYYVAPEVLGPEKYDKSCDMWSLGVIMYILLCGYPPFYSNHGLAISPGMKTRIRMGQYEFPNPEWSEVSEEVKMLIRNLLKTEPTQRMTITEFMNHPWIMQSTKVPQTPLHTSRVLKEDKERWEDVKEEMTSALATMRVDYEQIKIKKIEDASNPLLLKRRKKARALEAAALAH
# [25] = molecular target: MELK (human) (UniProt Q14680)
# MELK (human), sequence (Q14680 whole entry, looked up): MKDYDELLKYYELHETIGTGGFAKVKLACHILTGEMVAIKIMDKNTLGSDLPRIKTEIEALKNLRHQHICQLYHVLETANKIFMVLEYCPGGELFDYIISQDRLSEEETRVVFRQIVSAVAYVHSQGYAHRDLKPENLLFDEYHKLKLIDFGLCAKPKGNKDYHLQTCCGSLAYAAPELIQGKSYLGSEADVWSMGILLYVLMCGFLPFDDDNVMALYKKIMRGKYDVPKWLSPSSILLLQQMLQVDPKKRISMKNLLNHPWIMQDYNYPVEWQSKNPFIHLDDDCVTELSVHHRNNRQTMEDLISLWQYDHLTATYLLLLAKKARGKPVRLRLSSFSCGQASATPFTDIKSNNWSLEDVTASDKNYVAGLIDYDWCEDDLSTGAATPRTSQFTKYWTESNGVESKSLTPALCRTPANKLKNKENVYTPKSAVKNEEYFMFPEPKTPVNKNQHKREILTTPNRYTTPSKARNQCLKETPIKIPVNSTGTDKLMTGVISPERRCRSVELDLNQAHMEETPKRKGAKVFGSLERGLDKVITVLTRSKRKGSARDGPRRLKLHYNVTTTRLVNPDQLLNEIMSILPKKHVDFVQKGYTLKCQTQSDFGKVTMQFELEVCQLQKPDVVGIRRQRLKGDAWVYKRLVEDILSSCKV
# [26] = molecular target: NEK1 (human) (UniProt Q96PY6)
# [27] = molecular target: NEK2 (human) (UniProt P51955)
# [28] = molecular target: PKN2 (human) (UniProt Q16513)
# [29] = molecular target: PRKCB1 (human) (UniProt P05771)
# [30] = molecular target: PRKCH (human) (UniProt P24723)
# [31] = molecular target: PTK2B (human) (UniProt Q14289)
# [32] = molecular target: PTK6 (human) (UniProt Q13882)
# [33] = molecular target: ROS1 (human) (UniProt P08922)
# [34] = molecular target: RPS6KA2 KD1 KD2 (human) (UniProt Q15349)
# [35] = molecular target: RPS6KA5 KD2 (human) (UniProt O75582)
# [36] = molecular target: STK17A (human) (UniProt Q9UEE5)
# STK17A (human), sequence (Q9UEE5 whole entry, looked up): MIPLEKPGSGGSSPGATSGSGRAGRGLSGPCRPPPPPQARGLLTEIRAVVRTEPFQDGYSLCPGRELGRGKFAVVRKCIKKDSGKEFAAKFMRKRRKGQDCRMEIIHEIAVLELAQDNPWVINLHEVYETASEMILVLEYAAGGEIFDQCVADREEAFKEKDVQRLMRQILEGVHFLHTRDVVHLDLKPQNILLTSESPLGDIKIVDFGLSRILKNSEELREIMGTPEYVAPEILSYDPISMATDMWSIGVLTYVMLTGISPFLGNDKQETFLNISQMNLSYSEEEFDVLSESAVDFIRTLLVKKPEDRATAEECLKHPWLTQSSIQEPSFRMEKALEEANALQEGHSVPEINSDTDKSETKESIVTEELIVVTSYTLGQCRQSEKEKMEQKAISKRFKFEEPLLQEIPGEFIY
# [37] = molecular target: STK25 (human) (UniProt O00506)
# STK25 (human), sequence (O00506 whole entry, looked up): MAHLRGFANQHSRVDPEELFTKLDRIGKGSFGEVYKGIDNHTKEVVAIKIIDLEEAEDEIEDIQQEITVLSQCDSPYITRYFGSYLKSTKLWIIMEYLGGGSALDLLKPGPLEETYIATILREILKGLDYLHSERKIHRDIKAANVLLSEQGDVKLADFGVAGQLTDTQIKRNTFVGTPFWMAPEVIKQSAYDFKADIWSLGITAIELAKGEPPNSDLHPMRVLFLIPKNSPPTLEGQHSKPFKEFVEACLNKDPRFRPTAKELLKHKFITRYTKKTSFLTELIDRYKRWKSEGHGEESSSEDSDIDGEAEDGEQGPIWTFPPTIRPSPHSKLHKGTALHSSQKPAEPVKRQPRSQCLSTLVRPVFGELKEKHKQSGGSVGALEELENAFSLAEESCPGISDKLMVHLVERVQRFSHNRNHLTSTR
# [38] = molecular target: STK39 (human) (UniProt Q9UEW8)
# [39] = molecular target: TEC (human) (UniProt P42680)
# [40] = molecular target: TGFBR1 (human) (UniProt P36897)
# TGFBR1 (human), sequence (P36897 whole entry, looked up): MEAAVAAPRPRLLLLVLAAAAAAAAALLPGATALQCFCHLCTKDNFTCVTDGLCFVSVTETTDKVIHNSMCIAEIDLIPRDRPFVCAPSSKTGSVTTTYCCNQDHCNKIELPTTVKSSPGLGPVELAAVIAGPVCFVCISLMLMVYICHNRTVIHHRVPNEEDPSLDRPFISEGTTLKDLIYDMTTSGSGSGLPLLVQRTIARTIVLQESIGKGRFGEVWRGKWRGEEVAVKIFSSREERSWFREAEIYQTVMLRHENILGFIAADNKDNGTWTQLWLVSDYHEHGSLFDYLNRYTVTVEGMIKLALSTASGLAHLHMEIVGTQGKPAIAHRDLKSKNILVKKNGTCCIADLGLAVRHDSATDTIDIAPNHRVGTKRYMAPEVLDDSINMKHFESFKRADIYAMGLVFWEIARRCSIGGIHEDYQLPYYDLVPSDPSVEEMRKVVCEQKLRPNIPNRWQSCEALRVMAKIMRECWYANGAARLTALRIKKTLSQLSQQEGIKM
# [41] = molecular target: TSSK1B (human) (UniProt Q9BXA7)
# [42] = molecular target: WEE1 (human) (UniProt P30291)
# AURKC (human), sequence (Q9UQB9 whole entry, looked up): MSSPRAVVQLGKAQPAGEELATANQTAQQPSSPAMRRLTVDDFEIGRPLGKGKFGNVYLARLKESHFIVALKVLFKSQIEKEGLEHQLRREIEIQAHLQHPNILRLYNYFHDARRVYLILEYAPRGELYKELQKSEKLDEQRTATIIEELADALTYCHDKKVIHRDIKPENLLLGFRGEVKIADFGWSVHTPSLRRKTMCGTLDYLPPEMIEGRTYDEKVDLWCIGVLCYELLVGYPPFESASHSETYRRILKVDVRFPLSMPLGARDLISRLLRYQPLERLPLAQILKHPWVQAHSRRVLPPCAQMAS
smiles,measurement,setting,value
N#CCCc1ccc2c(c1)-c1[nH]c3ccc([N+](=O)[O-])cc3c1CC(=O)N2,residual activity,[1],53.6%
same,residual activity,[2],83.6%
same,residual activity,[3],86.8%
same,residual activity,[4],26%
same,residual activity,[5],23.7%
same,residual activity,[6],105%
same,residual activity,[7],108%
same,residual activity,[8],96.3%
same,residual activity,[9],89.7%
same,residual activity,[10],92.9%
same,residual activity,[11],104%
same,residual activity,[12],85.9%
same,residual activity,[13],76.8%
same,residual activity,[14],100%
same,residual activity,[15],91.7%
same,residual activity,[16],99.7%
same,residual activity,[17],0.804%
same,residual activity,[18],113%
same,residual activity,[19],91.9%
same,residual activity,[20],75.5%
same,residual activity,[21],76.6%
same,residual activity,[22],90.3%
same,residual activity,[23],119%
same,residual activity,[24],83.4%
same,residual activity,[25],88.6%
same,residual activity,[26],132%
same,residual activity,[27],92.7%
same,residual activity,[28],77.9%
same,residual activity,[29],97.4%
same,residual activity,[30],99.4%
same,residual activity,[31],62.9%
same,residual activity,[32],94.6%
same,residual activity,[33],71%
same,residual activity,[34],24.4%
same,residual activity,[35],94.2%
same,residual activity,[36],46.8%
same,residual activity,[37],91.1%
same,residual activity,[38],96.4%
same,residual activity,[39],120%
same,residual activity,[40],103%
same,residual activity,[41],59.2%
same,residual activity,[42],100%
CCOc1cc2ncnc(Nc3cccc(Br)c3)c2cc1OCC,residual activity,[1],103%
same,residual activity,[2],83.7%
same,residual activity,[3],101%
same,residual activity,[4],104%
same,residual activity,[5],102%
same,residual activity,[6],105%
same,residual activity,[7],85.3%
same,residual activity,[8],94%
same,residual activity,[9],98.7%
same,residual activity,[10],93.8%
same,residual activity,[11],99.5%
same,residual activity,[12],98.7%
same,residual activity,[13],103%
same,residual activity,[14],96.9%
same,residual activity,[15],84.7%
same,residual activity,[16],85%
same,residual activity,[17],110%
same,residual activity,[18],89.9%
same,residual activity,[19],102%
same,residual activity,[20],92%
same,residual activity,[21],74.4%
same,residual activity,[22],95.5%
same,residual activity,[23],104%
same,residual activity,[24],101%
same,residual activity,[25],88.1%
same,residual activity,[26],99.2%
same,residual activity,[27],98.7%
same,residual activity,[28],90%
same,residual activity,[29],100%
same,residual activity,[30],94.9%
same,residual activity,[31],95.8%
same,residual activity,[32],27.7%
same,residual activity,[33],102%
same,residual activity,[34],74.5%
same,residual activity,[35],95.8%
same,residual activity,[36],98.9%
same,residual activity,[37],90.1%
same,residual activity,[38],110%
same,residual activity,[39],120%
same,residual activity,[40],96.9%
same,residual activity,[41],92.9%
same,residual activity,[42],97.9%
CCCCc1c(-c2ccc(O)cc2)[nH]c2nccnc12,residual activity,[1],76.2%
same,residual activity,[2],44.9%
same,residual activity,[3],91.7%
same,residual activity,[4],84.6%
same,residual activity,[5],42.8%
same,residual activity,[6],77.6%
same,residual activity,[7],121%
same,residual activity,[8],78.2%
same,residual activity,[9],82.3%
same,residual activity,[10],94.7%
same,residual activity,[11],99.7%
same,residual activity,[12],92.9%
same,residual activity,[13],73.3%
same,residual activity,[14],99.7%
same,residual activity,[15],68.8%
same,residual activity,[16],86.3%
same,residual activity,[17],57.7%
same,residual activity,[18],108%
same,residual activity,[19],53.8%
same,residual activity,[20],89.8%
same,residual activity,[21],80.8%
same,residual activity,[22],84.7%
same,residual activity,[23],106%
same,residual activity,[24],92.6%
same,residual activity,[25],82.5%
same,residual activity,[26],92.2%
same,residual activity,[27],106%
same,residual activity,[28],82.4%
same,residual activity,[29],95.5%
same,residual activity,[30],90.5%
same,residual activity,[31],99%
same,residual activity,[32],29.7%
same,residual activity,[33],26.3%
same,residual activity,[34],87.7%
same,residual activity,[35],101%
same,residual activity,[36],84.9%
same,residual activity,[37],91.4%
same,residual activity,[38],76.1%
same,residual activity,[39],87.3%
same,residual activity,[40],100%
same,residual activity,[41],62%
same,residual activity,[42],94.6%
CCc1nc(-c2ccc(OC)cc2)[nH]c1-c1ccncc1,residual activity,[1],101%
same,residual activity,[2],97.4%
same,residual activity,[3],109%
same,residual activity,[4],101%
same,residual activity,[5],97.9%
same,residual activity,[6],104%
same,residual activity,[7],95.6%
same,residual activity,[8],101%
same,residual activity,[9],106%
same,residual activity,[10],95.3%
same,residual activity,[11],103%
same,residual activity,[12],97.7%
same,residual activity,[13],106%
same,residual activity,[14],100%
same,residual activity,[15],116%
same,residual activity,[16],90.2%
same,residual activity,[17],99.1%
same,residual activity,[18],90%
same,residual activity,[19],110%
same,residual activity,[20],103%
same,residual activity,[21],92.7%
same,residual activity,[22],105%
same,residual activity,[23],97.2%
same,residual activity,[24],100%
same,residual activity,[25],110%
same,residual activity,[26],98.9%
same,residual activity,[27],100%
same,residual activity,[28],95.7%
same,residual activity,[29],104%
same,residual activity,[30],93%
same,residual activity,[31],94.6%
same,residual activity,[32],88.5%
same,residual activity,[33],91.8%
same,residual activity,[34],99.1%
same,residual activity,[35],107%
same,residual activity,[36],96.1%
same,residual activity,[37],116%
same,residual activity,[38],94.2%
same,residual activity,[39],109%
same,residual activity,[40],98.2%
same,residual activity,[41],106%
same,residual activity,[42],89.1%
